Assay results reported in ChEMBL document CHEMBL1781986, “Structure-activity relationships of pyrrole based S-nitrosoglutathione reductase inhibitors: pyrrole regioisomers and propionic acid replacement” (Bioorg Med Chem Lett, 2011).

Experiments:
[1] = Inhibition of GSNOR expressed in Escherichia coli using GSNO by cuvette method
[2] = Inhibition of GSNOR expressed in Escherichia coli using GSNO by plate method
[3] = Oral bioavailability in BALB/c mouse at 10 mg/kg administered as single dose; format: ADME, organism-based; conditions: in vivo
[4] = test system: A549; assay: Cytotoxicity against human A549 cells; format: functional, cell-based
[5] = Clearance in BALB/c mouse plasma at 2 mg/kg, iv or at 10 mg/kg, po administered as single dose; format: ADME, organism-based

SMILES	IC50 [1]	also measured
COc1ccc(-c2ccn(C(C)CC(=O)O)c2-c2ccc(C(N)=O)cc2C)cc1 (stereo not drawn)	14.1 µM	
COc1ccc(-c2ccn(C(CC(=O)O)C3CC3)c2-c2ccc(C(N)=O)cc2C)cc1 (stereo not drawn)	> 100 µM	
COc1cc(Cl)ccc1-n1ccc(CCC(=O)O)c1-c1ccc(C(N)=O)cc1C		IC50 [2]: 0.049 µM
CCCC(CC(=O)O)n1ccc(-c2ccc(OC)cc2)c1-c1ccc(C(N)=O)cc1C (stereo not drawn)	63.7 µM	
COc1ccc(-c2ccn(CC(N)C(=O)O)c2-c2ccc(C(N)=O)cc2C)cc1 (stereo not drawn)	> 100 µM	
COc1ccc(-c2ccn(-c3ccc(C(=O)O)cn3)c2-c2ccc(C(N)=O)cc2C)cc1	29.6 µM	
COc1ccc(-c2ccn(C(CC(=O)O)C(C)C)c2-c2ccc(C(N)=O)cc2C)cc1 (stereo not drawn)	97.2 µM	
COc1ccc(-c2ccn(CC(O)C(=O)O)c2-c2ccc(C(N)=O)cc2C)cc1 (stereo not drawn)	23.5 µM	
COc1ccc(-c2ccn(C3CCC(C(=O)O)CC3)c2-c2ccc(C(N)=O)cc2C)cc1 (stereo not drawn)	> 100 µM	
COc1ccc(-c2ccc(CCC(=O)O)n2-c2ccc(C(N)=O)cc2C)cc1		bioavailability [3]: 16.2%; clearance [5]: 35.4 mL/min/kg; IC50 [2]: 0.18 µM
COc1ccc(-c2ccn(C(CC(=O)O)c3ccccc3)c2-c2ccc(C(N)=O)cc2C)cc1 (stereo not drawn)	8.84 µM	
COc1cc(Cl)ccc1-c1ccc(CCC(=O)O)n1-c1ccc(C(N)=O)cc1C		IC50 [2]: 0.054 µM
COc1ccc(-c2ccn(CC3(C(=O)O)CC3)c2-c2ccc(C(N)=O)cc2C)cc1	8.09 µM	
COc1ccc(-c2ccn(-c3ccc(C(=O)O)nc3)c2-c2ccc(C(N)=O)cc2C)cc1	8.53 µM	
COc1ccc(-c2ccn(-c3ccc(S(N)(=O)=O)cc3)c2-c2ccc(C(N)=O)cc2C)cc1	28.4 µM	
COc1ccc(-n2ccc(CCC(=O)O)c2-c2ccc(C(N)=O)cc2C)cc1		IC50 [2]: 0.16 µM
COc1ccc(-c2ccn(-c3ccc(O)nc3)c2-c2ccc(C(N)=O)cc2C)cc1	21.6 µM	

Further compounds by falling IC50 [1], results first:

IC50 [1]	SMILES	also measured
3.47 µM	COc1ccc(-c2ccn(-c3ccc(C(=O)O)c(Cl)c3)c2-c2ccc(C(N)=O)cc2C)cc1	
3.02 µM	COc1ccc(-c2ccn(-c3ccc(O)cn3)c2-c2ccc(C(N)=O)cc2C)cc1	
1.97 µM	COc1ccc(-c2ccn(CC(C)C(=O)O)c2-c2ccc(C(N)=O)cc2C)cc1 (stereo not drawn)	
1.57 µM	COc1ccc(-c2ccn(-c3ccc(C(=O)O)c(F)c3)c2-c2ccc(C(N)=O)cc2C)cc1	
1.51 µM	COc1ccc(-c2ccn(CC(F)(F)C(=O)O)c2-c2ccc(C(N)=O)cc2C)cc1	
0.85 µM	COc1ccc(-c2ccn(-c3ccc(C(=O)O)cc3)c2-c2ccc(C(N)=O)cc2C)cc1	
0.52 µM	COc1ccc(-c2ccn(CCC(=O)O)c2-c2ccc(C(N)=O)cc2C)cc1	bioavailability [3]: 12.2%; IC50 [4]: > 250 µM; clearance [5]: 52.3 mL/min/kg; IC50 [2]: 0.66 µM
0.46 µM	COc1ccc(-c2ccn(-c3ccc(O)c(F)c3)c2-c2ccc(C(N)=O)cc2C)cc1	
0.45 µM	COc1ccc(-c2ccn(-c3cc(F)c(O)c(F)c3)c2-c2ccc(C(N)=O)cc2C)cc1	
0.41 µM	COc1ccc(-c2ccn(-c3ccc(O)c(C(=O)O)c3)c2-c2ccc(C(N)=O)cc2C)cc1	
